Measurements from patent US6180599A, “Pharmaceutical composition, containing medium-chain fatty acids as active ingredients, for dental caries and periodontal disease” (priority 1997, dated 2001).

Assays:
[1] = tested on: cariogenic plaque bacteria separated from human oral cavities; test: Extracellular polysaccharide synthesis, 20 kinds of bacteria separated from human oral cavities (summary); type: cell-based; details: 1 mM
Protocol: (§1) In order to identify the effect by which medium-chain fatty acids inhibit plaque matrix formation, inhibitory effect and concentration of extracellular polysaccharide synthesis were determined in seven kinds of standard cariogenic plaque bacteria. Also, the inhibitory effect of extracellular polysaccharide synthesis for 20 kinds of cariogenic plaque bacteria, separated from the human oral cavity, was measured. Liquid culture media used were: Todd-Hewitt broth of Streptococcus, Lactobacilli MRS broth of Lactobacillus and Brain Heart Infusion broth of Actinomyces. 0.1 ml of bacterial (or cell) suspension (OD600 =0.5) of each bacteria was inoculated to 5.9 ml of culture media containing 1 mM of medium-chain fatty acids and 2% of glucose, and was cultured for 24^~ 48 hours in 10% CO2 incubator. After culturing, the resultant was centrifuged to precipitate at 5,000×g for 15 minutes, then soluble extracellular polysaccharide was separated and purified from the supernatant and insoluble extracellular polysaccharide from the cell pellet, and then these were quantified. So the experimental results that represent inhibitory effect of medium-chain fatty acids upon extracellular polysaccharide synthesis, are shown in table 1, 2, 3 and 4.

S. mutans JC-2 = test: Inhibitory effect on extracellular polysaccharide synthesis, standard strain; type: cell-based, Streptococcus mutans; details: 1 mM
Protocol: as §1, with “quantified.” for “quantified. So the experimental results that represent inhibitory effect of medium-chain fatty acids upon extracellular polysaccharide synthesis, are shown in table 1, 2, 3 and 4.”

S. mutans 10449 = test: as above; type: cell-based, Streptococcus mutans; details: 1 mM
Protocol: as §1, with “quantified.” for “quantified. So the experimental results that represent inhibitory effect of medium-chain fatty acids upon extracellular polysaccharide synthesis, are shown in table 1, 2, 3 and 4.”

S. mutans BHT = test: as above; type: cell-based, Streptococcus mutans; details: 1 mM
Protocol: as §1, with “quantified.” for “quantified. So the experimental results that represent inhibitory effect of medium-chain fatty acids upon extracellular polysaccharide synthesis, are shown in table 1, 2, 3 and 4.”

dental caries = test: Inhibitory effect on the occurrence of dental caries in rats; type: in vivo, Sprague-Dawley rats; details: for Linear unit for fissure-region dental caries, Dm: dentine moderate; for Linear unit for fissure-region dental caries, Dm / Linear unit for fissure-region dental caries, Ds / Linear unit for fissure-region dental caries, E: 50 mM in feed, 120 days; for Linear unit for fissure-region dental caries, Ds: dentine slight; for Linear unit for fissure-region dental caries, E: enamel only
Protocol: This experiment was carried out utilizing a dental caries experiment model in rats of Navia (1977) as followings.
Experimental animals were 48 (male: 24, female: 24) Sprague-Dawley rats, four-weeks old and of […] average body weight. These animals are equally divided into three groups according to sex and body weight at the early stage, and all these animals have clinically healthy teeth.
Experimental animals are divided into 3 groups according to diet, which are a control group of normal feed, a group of dental caries-induced feed and a experimental group of sodium laurate-added feed. Normal feed is solid feed for rodents (SAMYANG Co., Korea), caries-induced feed is prepared by mixing 40% sugar, 32% powdered milk, 21% flour, 5% yeast, 2% anchovy, 0.01% vitamin B and 0.01% vitamin C. Sodium laurate-added feed was prepared by adding 50 mM of sodium laurate to caries-induced feed. All the experimental animals were allowed water ad libitum.
One hundred twenty days later, all experimental animals were euthanized. The maxilla and mandible were separated, and fixed in 10% neutral formalin. A dental caries index was measured by the method originated by Keyes and modified by Larson (1981). Food debris remaining in the fissure of molar of maxilla and mandible was removed by a Barbed Broach tool used in clinical dentistry, then the molar teeth of maxilla and mandible were cut so that they could include the first, second, and third molar by using an Exact cutting system (Exact-Apprateb, Hamburg, Germany) equipped with a diamond-treated saw. Cutting of the molar teeth of both maxilla and mandible was carried out by a handpiece equipped with cutting disc (thickness, 0.004 inch; diameter, 0.75 inch). The direction of the cutting was from the mesial side of the first molar to the distal side of the third molar. The samples which were cut were stained in order to measure the dental caries-index easily. Staining was carried out as follows; samples were cultured with 0.02% solution of ammonium prupurate (murexide) for 12 hours, washed with flowing water for 10 minutes, then treated with 0.2% of ammoniacal silver nitrate for 30 seconds and washed with flowing water for 2 minutes before measurement. The degree of the affection of dental caries at the cut surface is classified into enamel only (E) when dental caries is affected only to enamel; and into slight (Ds), moderate (Dm) and extensive (Dx) according to the extent of affection when dental caries is affected further into the dentine. The total sum was calculated by adding up marks within the range of linear units administered to each tooth according to the modified method of Larson (1981).
Statistical analysis of each group concerning the linear unit, showing the extent of dental caries, was carried out using the Mann-Whitney test. Statistical analysis according to the feed and the region where the teeth were placed (maxilla or mandible) was carried out by the Kruskal-Wallis test. If more than 2/3 of the dental crown was lost due to serious abrasion and if it was impossible to observe in the process of treating samples, these teeth were excluded in the statistics.

[2] = tested on: cariogenic plaque bacteria (standard strains); test: Inhibitory effect of acid production, standard strains; type: cell-based, Streptococcus, Lactobacillus and Actinomyces; details: for inhibitory effect of acid production (in words): 0.5-8 mM, pH 5.0 and 7.0, 24-48 hours
Protocol: In order to identify the action by which medium-chain fatty acids inhibit acid production, the inhibitory effect and concentration of acid production were determined in seven kinds of standard cariogenic plaque bacteria. Also, the inhibitory effect of acid production for 20 kinds of cariogenic plaque bacteria, separated from the human oral cavity, was assayed. Liquid culture media used were: Todd-Hewitt broth of Streptococcus, Lactobacilli MRS broth of Lactobacillus and Brain Heart Infusion broth of Actinomyces. […] The final pH of the culture medium was measured after culturing for 24^~ 48 hours in 10% CO2 incubator.

With CCCCCCCCCCCC(=O)[O-].[Na+] [C12, sodium laurate] the “inhibition of soluble extracellular polysaccharide synthesis (in words)” value [1] was “noticeably inhibits soluble extracellular polysaccharide synthesis”, the “Extracellular polysaccharide, insoluble” value (S. mutans JC-2; 2% glucose, 24-48 hours, control 1.1 ± 0.2) was 0.1 ± 0.1 µg/mL and the “Extracellular polysaccharide, soluble” value (S. mutans JC-2; 2% glucose, 24-48 hours, control 34.4 ± 3.9) was 0.6 ± 0.5 µg/mL. For the same molecule, the “Inhibitory rate, soluble” value (S. mutans JC-2; vs control) was 98%, the “Extracellular polysaccharide, insoluble” value (S. mutans 10449; 2% glucose, 24-48 hours, control 0.8 ± 0.3) was 0.2 ± 0.1 µg/mL and the “Extracellular polysaccharide, soluble” value (S. mutans 10449; 2% glucose, 24-48 hours, control 74.6 ± 1.8) was 15.5 ± 3.8 µg/mL. The “Inhibitory rate, soluble” value (S. mutans 10449; vs control) was 79%, the “Extracellular polysaccharide, soluble” value (S. mutans BHT; 2% glucose, 24-48 hours, control 31.5 ± 3.7) was 4.1 ± 0.8 µg/mL and the “Inhibitory rate, soluble” value (S. mutans BHT; vs control) was 87%. The “Linear unit, Total (average ± standard deviation)” value (dental caries; 164 teeth, P < 0.01 vs caries-inducing feed (3.01 ± 2.35), normal feed 2.34 ± 1.37) was 1.71 ± 1.26, the “Linear unit for fissure-region dental caries, Dm” value (shortened to “Linear unit … Dm”) (dental caries; Mandible, 1st molar) was 0 and the “Linear unit for fissure-region dental caries, Ds” value (shortened to “Linear unit … Ds”) (dental caries; Mandible, 1st molar) was 7. For the same molecule, the “Linear unit for fissure-region dental caries, E” value (dental caries; Mandible, 1st molar) was 72, the “Linear unit … Dm” value (dental caries; Mandible, 2nd molar) was 0 and the “Linear unit … Ds” value (dental caries; Mandible, 2nd molar) was 10. For the same molecule, the “Linear unit for fissure-region dental caries, E” value (dental caries; Mandible, 2nd molar) was 55, the “Linear unit … Dm” value (dental caries; Mandible, 3rd molar) was 0 and the “Linear unit … Ds” value (dental caries; Mandible, 3rd molar) was 0. The “Linear unit for fissure-region dental caries, E” value (dental caries; Mandible, 3rd molar) was 16, the “Linear unit … Dm” value (dental caries; Maxilla, 1st molar) was 0 and the “Linear unit … Ds” value (dental caries; Maxilla, 1st molar) was 1. The “Linear unit for fissure-region dental caries, E” value (dental caries; Maxilla, 1st molar) was 61, the “Linear unit … Dm” value (dental caries; Maxilla, 2nd molar) was 0 and the “Linear unit … Ds” value (dental caries; Maxilla, 2nd molar) was 0. For the same molecule, the “Linear unit for fissure-region dental caries, E” value (dental caries; Maxilla, 2nd molar) was 41, the “Linear unit … Dm” value (dental caries; Maxilla, 3rd molar) was 0 and the “Linear unit … Ds” value (dental caries; Maxilla, 3rd molar) was 0. For the same molecule, the “Linear unit for fissure-region dental caries, E” value (dental caries; Maxilla, 3rd molar) was 17, the “dental caries in experimental animals (in words)” value (dental caries; sodium laurate-added feed) was “noticeably reduced dental caries in experimental animals” and the “inhibitory effect of acid production (in words)” value [2] was “excellent inhibitory effect of acid production even at low concentration of 1 mM”. The “inhibitory effect of acid production (in words)” value ([2]; listed as salt form of lauric acid) was “almost completely inhibits the acid production ability”, the “inhibitory effect of acid production in acidic conditions (in words)” value ([2]; acidic conditions, FIG. 1) was “significant effect of acid production in acidic conditions” and the “inhibitory effect of acid production, sequence” value ([2]; ranking, FIG. 1) was “sodium laurate>sodium capriate>sodium nonanoate”.
